Results as given in US8299066B2, “Compounds having NPY Y5 receptor antagonistic activity” (Shionogi & Co., Ltd., priority 2008, dated 2012).

Assays:
mouse NPY Y5 receptor = biological target: T1, mouse NPY Y5 receptor (Mus musculus, UniProt O70342); assay: Affinity for mouse NPY Y5 receptor ([125I] peptide YY binding, CHO cell membranes); details: inhibition of specific [125I] peptide YY binding, membranes of CHO cells expressing mouse NPY Y5 receptor
T1 construct: expressed in transfected cells
T1 sequence (O70342 1-466): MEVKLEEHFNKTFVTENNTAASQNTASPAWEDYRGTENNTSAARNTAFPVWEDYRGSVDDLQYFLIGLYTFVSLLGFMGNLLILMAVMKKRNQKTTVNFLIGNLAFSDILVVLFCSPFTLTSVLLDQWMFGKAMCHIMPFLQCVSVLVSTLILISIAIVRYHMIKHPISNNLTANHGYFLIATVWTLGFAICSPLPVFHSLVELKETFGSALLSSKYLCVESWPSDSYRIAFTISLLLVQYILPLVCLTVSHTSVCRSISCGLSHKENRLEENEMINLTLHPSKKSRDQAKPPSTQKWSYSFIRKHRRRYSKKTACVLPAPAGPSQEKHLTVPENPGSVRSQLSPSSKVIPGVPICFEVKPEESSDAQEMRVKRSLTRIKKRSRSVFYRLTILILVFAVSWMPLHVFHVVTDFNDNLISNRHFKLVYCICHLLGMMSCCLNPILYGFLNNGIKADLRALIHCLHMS
Description: cDNA sequence encoding a mouse NPY Y5 receptor (Biochim. Biophys. Acta 1328:83-89, 1997) was cloned in a vector (pME18S, Takebe et al. Mol. Cell. Biol. 8, 8957). The obtained expression vector was transfected into CHO cells as a host by using Lipofect AMINE Reagent (Trademark, Gico BRL Co., Ltd.) according to the instruction manual. The cells that stably express NPY Y5 receptor were obtained.
The membranes prepared from the CHO cells expressing NPY Y5 receptor, the compound of this invention and 30,000 cpm [^125I] peptide YY (60 pM of final concentration: Amersham) were incubated in the assay buffer (20 mM HEPES-Hanks buffer containing 0.1% bovine serum albumin, pH 7.4) at 25° C. for 2 hours, and then the membrane was filtered from the mixture through a glass filter (GF/C) presoaked with 1% polyethyleneimine. After washing with 50 mM Tris-HCl buffer (pH 7.4), radioactivity retained on the filters was quantified with a gamma counter. Nonspecific binding was defined as the amount of radioactivity bound to the membranes after incubation in the presence of 200 nM of peptide YY. The 50% inhibitory concentration of the test compound against the specific peptide YY binding (IC50 value) was calculated (Inui, A. et al. Endocrinology 131, 2090-2096 (1992)).

[1] = Evaluation for brain penetration in rats (cassette dosing); type: in vivo; details: male, Crl; CD (SD), rat; brain/plasma partition coefficient, 30 minutes after intravenous administration (0.5 mg/mL/kg) in rats
Experimental: (§1) By using the cassette dosing method (Drug. Metab. Dispos. (2001); 29, 957-966), brain penetration rate of the compounds (brain/plasma partition coefficients; Kp) were evaluated from plasma and brain concentrations at 30 minutes after intravenous administration (0.5 mg/mL/kg) in rats (Crl; CD (SD), ♂, 8 weeks) or at 3 or 5 hours after oral administration (2 mg/10 mL/kg) in mice (Jcl; C57BL/6J, ♂, 8 weeks).

[2] = Evaluation for brain penetration in mice (cassette dosing); type: in vivo; details: male, Jcl; C57BL/6J, mouse; brain/plasma partition coefficient, 3 or 5 hours after oral administration (2 mg/10 mL/kg) in mice
Experimental: as §1

[3] = Pharmacokinetic analysis in rats (cassette dosing, intravenous); type: in vivo; details: male, Crl, CD (SD), rat, plasma, intravenous administration (0.5 mg/mL/kg); for clearance: read-out: Rat CLtot; for half-life: read-out: Rat t½ (converted)
Experimental: By using the cassette dosing method, half-life (t1/2) and total clearance (CLtot) of the compounds of this invention were estimated from change in plasma concentration of each compound in rats (Crl; CD (SD), ♂, 8 weeks) after intravenous administration (0.5 mg/mL/kg).

NPY Y5 receptor = biological target: T2, NPY Y5 receptor (Mus musculus, UniProt O70342); assay: Food intake in mice induced by ICV NPY Y5 receptor specific agonist; type: in vivo
T2 construct: from tissue
T2 sequence (O70342 1-466): T1 sequence (O70342 1-466)
Experimental: Under diethylether anesthesia the skull of male C57BL/6J mice (12-14 week old, 25-30 g) was exposed by making an incision about 1-cm long from external occipital crest to nasal dorsum, and drilled in the 1-mm lateral position to the left following 1-mm posterior from bregma. After recovery from anesthesia mice were dosed with either 0.5% hydroxypropylmethyl cellulose solution (Shin-Etsu Chemical Co., Ltd) or the compounds of this invention suspended in the 0.5% hydroxypropylmethyl cellulose solution. At one hour after the treatment, each animal received a NPY Y5 receptor specific agonist, [cPP^1-7, NPY^19-23, Ala^31, Aib^32, Gln^34]-hPancreatic Polypeptide (0.1 nmol/1.5 μL/mouse) through the skull opening using a canula. Residual food was measured at 2 and 4 hours after the treatment, and the difference in food intake between the compounds-treated mice and 0.5% hydroxypropylmethyl cellulose solution-treated mice was calculated. The compound at 6 mg/kg caused a significant reduction in food intake of mice compared to the treatment with 0.5% hydroxypropylmethyl cellulose solution.
For example, mean food intakes at 2 and 4 hours after oral administration of Compound IVa-9 at 6 mg/kg in mice (Group A) were 0.24±0.05 g and 0.51±0.06 g, respectively. On the other hand, mean food intakes at 2 and 4 hours after oral administration of 0.5% hydroxypropylmethyl cellulose solution in mice (Group B) were 0.58±0.07 g and 1.26±0.10 g, respectively. Also, mean food intakes at 2 and 4 hours after oral administration of 0.5% hydroxypropylmethyl cellulose solution without ICV injection of NPY Y5 receptor specific agonist in mice (Group C) were 0.06±0.04 g and 0.14±0.05 g, respectively. After subtracting the mean value of Group C from that of Group A or B, the inhibition rates of the compound on food intake at 2 and 4 hours after administration in Group A against Group B were estimated.

Row | Structure (SMILES) | IC50 (mouse NPY Y5 receptor) [nM] | Kp at 0.5 h [1] | Kp at 5 h [2] | clearance [3] [mL/min/kg] | half-life [3] [h] | also measured
1 | CC(C)(C)S(=O)(=O)N[C@H]1CC[C@H](c2[nH]cc(-c3ccccc3)c2C#N)CC1 [IIa-3] | 0.22 |  |  |  |  | 
2 | CC(C)(C)S(=O)(=O)N[C@H]1CC[C@H](c2cc3c(-c4ccccn4)cccc3[nH]2)CC1 [Ia-2] | 1.1 |  |  |  |  | 
3 | CC(C)(C)S(=O)(=O)N[C@H]1CC[C@H](c2cc3cc(-c4ccccn4)ccc3[nH]2)CC1 [Ia-7] | 0.28 |  |  |  |  | 
4 | CC(C)(C)S(=O)(=O)N[C@H]1CC[C@H](c2cc3cc(-c4ncccn4)ccc3[nH]2)CC1 [Ia-8] |  | 3.55 | 2.11 | 17.8 | 1.57 | 
5 | CC(C)(C)S(=O)(=O)N[C@H]1CC[C@H](c2cc3ccc(-c4ccccn4)cc3[nH]2)CC1 [Ia-18] | 5.5 |  |  |  |  | 
6 | CC(C)(C)S(=O)(=O)N[C@H]1CC[C@H](c2cc3nc(-c4ccccc4F)ccc3[nH]2)CC1 [Ib-13] |  | 2.3 | 1.33 |  |  | 
7 | CC(C)(C)S(=O)(=O)N[C@H]1CC[C@H](c2cc3nc(-c4ccccn4)ccc3[nH]2)CC1 [Ib-14] | 0.29 |  |  |  |  | 
8 | CC(C)(C)S(=O)(=O)N[C@H]1CC[C@H](c2cc3c(-c4ccccn4)cncc3[nH]2)CC1 [Ib-28] | 1.3 |  |  |  |  | 
9 | CC(C)(C)S(=O)(=O)N[C@H]1CC[C@H](c2cc3cc(-c4ccccn4)cnc3[nH]2)CC1 [Ib-32] | 0.75 |  |  |  |  | 
10 | CC(C)(C)S(=O)(=O)N[C@H]1CC[C@H](c2cc3nc(-c4ccc(F)cc4)ncc3[nH]2)CC1 [Ib-35] |  | 1.91 | 0.89 |  |  | 

More lines, main results first:

Row | IC50 (mouse NPY Y5 receptor) [nM] | Kp at 0.5 h [1] | Kp at 5 h [2] | clearance [3] [mL/min/kg] | half-life [3] [h] | Structure (SMILES) | also measured
11 | 0.85 |  |  |  |  | CC(C)(C)S(=O)(=O)N[C@H]1CC[C@H](c2nc(-c3ccccc3)c[nH]2)CC1 [IIIa-1] | 
12 |  | 1.37 | 0.45 | 14.8 | 2.96 | CC(C)(C)S(=O)(=O)N[C@H]1CC[C@H](c2nc(-c3ccc(Cl)c(Cl)c3)c[nH]2)CC1 [IIIa-4] | 
13 |  |  |  | 14.5 | 1.17 | CC(C)(C)S(=O)(=O)N[C@H]1CC[C@H](c2nc(-c3cccc(C#N)c3)c[nH]2)CC1 [IIIa-13] | 
14 |  |  |  | 3.46 | 4.04 | CC(C)(C)S(=O)(=O)N[C@H]1CC[C@H](c2nc(-c3ccccc3)c(Cl)[nH]2)CC1 [IIIb-1] | 
15 |  |  |  | 3.84 | 7.67 | CC(C)(C)S(=O)(=O)N[C@H]1CC[C@H](c2nc(-c3ccccc3)c(C(F)(F)F)[nH]2)CC1 [IIIb-5] | 
16 | 0.7 |  |  |  |  | COc1cccc(-c2nc([C@H]3CC[C@H](NS(=O)(=O)C(C)(C)C)CC3)[nH]c2C(F)(F)F)c1 [IIIb-7] | 
17 | 1.4 | 3.69 | 1.78 | 7.43 | 3.82 | CC(C)(C)S(=O)(=O)N[C@H]1CC[C@H](c2cc(-c3ccccc3)n[nH]2)CC1 [IVa-3] | 
18 |  | 2.28 | 2.41 | 2.67 | 13.6 | CC(C)(C)S(=O)(=O)N[C@H]1CC[C@H](c2cc(-c3ccc(F)cc3)n[nH]2)CC1 [IVa-9] | inhibition rate on food intake at 2 hours (NPY Y5 receptor; 6 mg/kg oral, Group A against Group B after subtracting Group C, 2 hours): 65.4%; inhibition rate on food intake at 4 hours (NPY Y5 receptor; 6 mg/kg oral, Group A against Group B after subtracting Group C, 4 hours): 67.0%; mean food intake at 2 hours (NPY Y5 receptor; oral administration at 6 mg/kg in mice, ICV NPY Y5 agonist, 2 hours): 0.24 ± 0.05 g; mean food intake at 4 hours (NPY Y5 receptor; oral administration at 6 mg/kg in mice, ICV NPY Y5 agonist, 4 hours): 0.51 ± 0.06 g
19 |  | 1.88 | 1.44 |  |  | Cc1c(-c2ccccc2)n[nH]c1[C@H]1CC[C@H](NS(=O)(=O)C(C)(C)C)CC1 [IVb-1] | 
20 |  | 5.84 | 3.14 | 4.04 | 8.14 | CC(C)(C)S(=O)(=O)N[C@H]1CC[C@H](c2[nH]nc(-c3ccccc3)c2F)CC1 [IVb-3] | 
21 | 0.37 |  |  |  |  | CC(C)(C)S(=O)(=O)N[C@H]1CC[C@H](c2[nH]nc(-c3ccccc3)c2C#N)CC1 [IVb-23] | 
22 | 2.2 |  |  | 2.6 | 6.4 | CC(C)(C)S(=O)(=O)N[C@H]1CC[C@H](c2nc(-c3ccccc3)n[nH]2)CC1 [Va-2] | 
23 |  |  |  | 3.82 | 9.1 | CC(C)(C)S(=O)(=O)N[C@H]1CC[C@H](c2nc(-c3cccc(Cl)c3)n[nH]2)CC1 [Va-5] | 
